Measured values: publication PMC12250129, “Exploring the Therapeutic Potential of ^177Lu-PSMA-617 in a Mouse Model of Prostate Cancer Bone Metastases” (International Journal of Molecular Sciences, 2025)

How the values were obtained:
[1] = tested on: bone metastasis of LNCaP/Luc prostate cancer; experiment: Therapeutic efficacy in mice with bone metastasis of LNCaP/Luc prostate cancer; format: in vivo, mouse; details: for median survival time: tail vein, day 0, control 26 days; for lifespan increase: vs control
Protocol: Therapeutic response monitoring was performed using bioluminescence imaging on days 3, 7, 15, and 30. […] The survival curves presented in Figure 6C further highlight the therapeutic effect. The median survival time for the control group (receiving normal saline) was 26 days, whereas mice treated with 1mCi (37 MBq) and 3mCi (111 MBq) of ^177Lu-PSMA-617 had median survival times of 34 days (p = 0.01) and 40 days (p = 0.02), respectively.
The mice were intratibially injected with LNCaP/Luc cells. After 45 days of tumor-implantation, the mice were assigned to three groups, including the saline control (n = 6), a low dose of ^177Lu-PSMA-617 (n = 8), and a high dose of ^177Lu-PSMA-617 (n = 9). The mice were administered via the tail vein with equivalent to 1mCi (37 MBq) and 3mCi (111 MBq) of ^177Lu-PSMA-617 on day 0. Body weight changes were measured during observation days. The death of mice was recorded for the survival curve by the Kaplan–Meier method. A humane endpoint was defined as a decrease in body weight of 20% or more compared with the body weight measured on the day of tumor inoculation. The survival rate of all groups was analyzed by the log-rank test, and p < 0.05 was considered significant difference. The median survival time was presented in efficacy studies. The median survival time was calculated as the smallest survival time for which the survivor function is less than or equal to 0.5. The therapeutic responses were monitored by bioluminescence imaging during observation days. The BNL/Luc tumor of mice was imaged and measured using the IVIS Imaging system and Living Imaging software (Xenogen, Alameda, CA, USA; available at https://www.perkinelmer.com) on days 3, 7, 15, and 30.

[2] = Absorbed radiation dose calculations (OLINDA/EXM), extrapolated from mouse data; design: species or system human; details: 70 kg male adult
Protocol: Radiation doses (mGy/GBq) for major human organs (male) were calculated using the OLINDA/EXM Version 1.1 software. The organ-specific radiation absorbed doses following the administration of ^177Lu-PSMA-617 to humans were estimated based on residence times derived from mouse data and are presented in Table 1. […] The overall effective dose was 0.127 mSv/MBq. These findings provide critical insights into the dosimetry profile of ^177Lu-PSMA-617, aiding in the assessment of its safety and therapeutic potential.
The absorbed radiation dose calculations were performed as previously reported. For the estimation of mean absorbed doses in humans, the relative organ mass scaling method was used. The calculated mean value of the percentage injected activity per gram of tissue (%IA/g) for the organs in mice was extrapolated to the uptake amount in the organs of a 70 kg adult using the following formula:[(%IA/gorgan)animal × (kgTB weight)animal] × (gorgan/kgTB weight)human = (%IA/organ)human
The extrapolated values (%IA) in human organs at 1, 4, 24, and 48 h were fitted with exponential biokinetic models and integrated to obtain the number of disintegrations in the source organs; this information was entered into the OLINDA/EXM computer program. The integrals (MBq-s) for 11 organs, including heart contents (blood), the heart, the liver, the spleen, the lung, the kidney, muscle, the brain, bone, the small intestine, and the remainder of the body, were evaluated and used for the dosimetry evaluation.

[3] = design: method as in PMID 25573634; details: over 96 h; cited from earlier work

Q: For `O=C([O-])CN1CCN(CC(=O)[O-])CCN(CC(=O)NCC2CCC(C(=O)N[C@@H](Cc3ccc4ccccc4c3)C(=O)NCCCC[C@H](NC(=O)N[C@@H](CCC(=O)O)C(=O)O)C(=O)O)CC2)CCN(CC(=O)[O-])CC1.[177Lu+3]` (stereo partly shown) [^177Lu-PSMA-617], which median survival time ([1]; 1mCi (37 MBq), p = 0.01) is on record?
A: 34 days

Q: And the lifespan increase ([1]; 1mCi (37 MBq))?
A: 30.7%

Q: And the median survival time ([1]; 3mCi (111 MBq), p = 0.02)?
A: 40 days

Q: And the lifespan increase ([1]; 3mCi (111 MBq))?
A: 53.8%

Q: And the “bioluminescence signal intensity vs controls” value ([1]; days 3, 7, 15 and 30 after treatment)?
A: significantly lower signal intensities

Q: What about the “Estimated Dose” value ([2]; Adrenals) of the same compound?
A: 8.15E−04 mSv/MBq

Q: And the “Estimated Dose” value ([2]; Brain)?
A: 3.54E−05 mSv/MBq

Q: What about the “Estimated Dose” value ([2]; Breasts) of the same compound?
A: 7.86E−03 mSv/MBq

Q: What about the “Estimated Dose” value ([2]; Kidneys) of the same compound?
A: 2.19E−04 mSv/MBq

Q: And the “Estimated Dose” value ([2]; LLI Wall)?
A: 2.01E−02 mSv/MBq

Q: What about the “Estimated Dose” value ([2]; Liver) of the same compound?
A: 5.81E−04 mSv/MBq

Q: What about the “Estimated Dose” value ([2]; Lungs) of the same compound?
A: 1.47E−03 mSv/MBq

Q: What about the “Estimated Dose” value ([2]; Muscle) of the same compound?
A: 6.33E−05 mSv/MBq

Q: What about the “Estimated Dose” value ([2]; Osteogenic Cells) of the same compound?
A: 4.98E−03 mSv/MBq

Q: What about the “Estimated Dose” value ([2]; Pancreas) of the same compound?
A: 8.27E−04 mSv/MBq

Q: What about the “Estimated Dose” value ([2]; Red Marrow) of the same compound?
A: 1.47E−02 mSv/MBq

Q: And the “Estimated Dose” value ([2]; Skin)?
A: 1.54E−03 mSv/MBq

Q: And the “Estimated Dose” value ([2]; Small Intestine)?
A: 8.52E−04 mSv/MBq

Q: And the “Estimated Dose” value ([2]; Spleen)?
A: 6.92E−05 mSv/MBq

Q: What about the “Estimated Dose” value ([2]; Stomach Wall) of the same compound?
A: 1.98E−02 mSv/MBq

Q: What about the “Estimated Dose” value ([2]; Testes) of the same compound?
A: 2.16E−02 mSv/MBq

Q: What about the “Estimated Dose” value ([2]; Thymus) of the same compound?
A: 8.01E−04 mSv/MBq

Q: What about the “Estimated Dose” value ([2]; Thyroid) of the same compound?
A: 8.08E−03 mSv/MBq

Q: What about the “Estimated Dose” value ([2]; ULI Wall) of the same compound?
A: 8.45E−04 mSv/MBq

Q: What about the “Estimated Dose” value ([2]; Urinary Bladder Wall) of the same compound?
A: 8.32E−03 mSv/MBq

Q: What about the “Estimated Dose” value ([2]; Uterus) of the same compound?
A: 8.48E−04 mSv/MBq

Q: And the “Effective Dose” value ([2]; overall effective dose)?
A: 1.27E−01 mSv/MBq

Q: What about the “stability in human serum” value [3] of the same compound?
A: > 95%
